Data on 29 substances can be found in US20120016009A1, “Optimized Methods For Delivery Of DSRNA Targeting The PCSK9 Gene” (priority 2008, published 2012).

In the oligonucleotide strings, read from the 5' end, every base follows the letter of its sugar. An asterisk marks phosphorothioate; unmarked linkages are phosphodiester. Other units and linkages are bracketed, terminal groups are in braces. A string of capitals states the bases alone. d = 2'-deoxy (DNA); m = 2'-O-methyl; r = 2'-OH (RNA)

This data set relates to PCSK9 mRNA. Put plainly: PCSK9 siRNA screening in HepG2 cells (lipofectamine 2000 transfection, PCSK9 mRNA by Quantigene, normalized to GAP-DH). The conditions noted are these: for Mean percent remaining mRNA transcript at siRNA concentration/in cell type 3 nM/HepG2: 3 nM siRNA; for Mean percent remaining mRNA transcript at siRNA concentration/in cell type 30 nM/HepG2: 30 nM siRNA. It is filed as cell-based, human. How it is done: HuH-7 cells were obtained from JCRB Cell Bank (Japanese Collection of Research Bioresources) (Shinjuku, Japan, cat. No.: JCRB0403) Cells were cultured in Dulbecco's MEM (Biochrom AG, Berlin, Germany, cat. No. F0435) supplemented to contain 10% fetal calf serum (FCS) (Biochrom AG, Berlin, Germany, cat. No. S0115), Penicillin 100 U/ml, Streptomycin 100 μg/ml (Biochrom AG, Berlin, Germany, cat. No. A2213) and 2 mM L-Glutamin (Biochrom AG, Berlin, Germany, cat. No K0282) at 37° C. in an atmosphere with 5% CO2 in a humidified incubator (Heraeus HERAcell, Kendro Laboratory Products, Langenselbold, Germany) HepG2 and HeLa cells were obtained from American Type Culture Collection (Rockville, Md., cat. No. HB-8065) and cultured in MEM (Gibco Invitrogen, Karlsruhe, Germany, cat. No. 21090-022) supplemented to contain 10% fetal calf serum (FCS) (Biochrom AG, Berlin, Germany, cat. No. S0115), Penicillin 100 U/ml, Streptomycin 100 μg/ml (Biochrom AG, Berlin, Germany, cat. No. A2213), 1× Non Essential Amino Acids (Biochrom AG, Berlin, Germany, cat. No. K-0293), and 1 mM Sodium Pyruvate (Biochrom AG, Berlin, Germany, cat. No. L-0473) at 37° C. in an atmosphere with 5% CO2 in a humidified incubator (Heraeus HERAcell, Kendro Laboratory Products, Langenselbold, Germany).
For transfection with siRNA, HuH7, HepG2, or HeLa cells were seeded at a density of 2.0×10^4 cells/well in 96-well plates and transfected directly. Transfection of siRNA (30 nM for single dose screen) was carried out with lipofectamine 2000 (Invitrogen GmbH, Karlsruhe, Germany, cat. No. 11668-019) as described by the manufacturer.
24 hours after transfection HuH7 and HepG2 cells were lysed and PCSK9 mRNA levels were quantified with the Quantigene Explore Kit (Genosprectra, Dumbarton Circle Fremont, USA, cat. No. QG-000-02) according to the protocol. PCSK9 mRNA levels were normalized to GAP-DH mRNA. For each siRNA eight individual datapoints were collected. siRNA duplexes unrelated to PCSK9 gene were used as control. The activity of a given PCSK9 specific siRNA duplex was expressed as percent PCSK9 mRNA concentration in treated cells relative to PCSK9 mRNA concentration in cells treated with the control siRNA duplex.
Tables 1b and 2b (and FIG. 6A) summarize the results and provide examples of in vitro screens in different cell lines at different doses. Silencing of PCSK9 transcript was expressed as percentage of remaining transcript at a given dose.
Very active sequences are those that have less than 60% of transcript remaining after treatment with a dose less than or equal to 100 nM. Active sequences are those that have less than 90% transcript remaining after treatment with a high dose (100 nM).

For “AD-9697: PCSK9 siRNA (sense rGmCmCrArGrGmUrGmCmUrGmCmCmUrGmCmUrAmCdT*dT; antisense rGmUrArGmCrArGrGmCrArGmCrArCrCrUrGrGrCdT*dT)”, the “Mean percent remaining mRNA transcript at siRNA concentration/in cell type 3 nM/HepG2” value was 89% and the “Mean percent remaining mRNA transcript at siRNA concentration/in cell type 30 nM/HepG2” value came out at 74%.
Turning to “AD-9659: PCSK9 siRNA (sense rGrAmCmCrAmCmCrGrGrGrArArAmUmCrGrArGrGdT*dT; antisense rCrCrUrCrGrArUrUrUrCrCrCrGrGrUrGrGrUrCdT*dT)”, the “Mean percent remaining mRNA transcript at siRNA concentration/in cell type 30 nM/HepG2” value is recorded as 88%.
On the same count and under the same terms, the same measure for “AD-9686: PCSK9 siRNA (sense rGrArGmUmUmUrAmUmUmCrGrGrArArArArGmCmCdT*dT; antisense rGrGrCrUrUrUrUrCrCrGrArAmUrArArArCrUrCdT*dT)”: 111%.
Turning to “AD-9517: PCSK9 siRNA (sense rGrGrArGrGrUrGrUrArUrCrUrCrCrUrArGrArCdT*dT; antisense rGrUrCrUrArGrGrArGrArUrArCrArCrCrUrCrCdT*dT)”, the “Mean percent remaining mRNA transcript at siRNA concentration/in cell type 30 nM/HepG2” value is on record as 36%.
The same measure, in the same setting: the same measure for “AD-9599: PCSK9 siRNA (sense rUrUrCrUrGrGrArUrGrGrCrArUrCrUrArGrCrCdT*dT; antisense rGrGrCrUrArGrArUrGrCrCrArUrCrCrArGrArAdT*dT)”: 139%; for “AD-9555: PCSK9 siRNA (sense rGrUrCrArGrGrArGrCrCrGrGrGrArCrGrUrCrAdT*dT; antisense rUrGrArCrGrUrCrCrCrGrGrCrUrCrCrUrGrArCdT*dT)”: 34%; for “AD-9715: PCSK9 siRNA (sense mCrAmCmCrGmCmUrGmCmCrGrGmCrArAmCmUmUmCdT*dT; antisense rGrArArGrUrUrGrCrCrGrGmCrArGrCrGrGrUrGdT*dT)”: 113%.
“AD-9604: PCSK9 siRNA (sense rCrUrCrArGrCrCrArArCrCrCrGrCrUrCrCrArCdT*dT; antisense rGrUrGrGrArGrCrGrGrGrUrUrGrGrCrUrGrArGdT*dT)”: the “Mean percent remaining mRNA transcript at siRNA concentration/in cell type 30 nM/HepG2” value is 49%. Moreover, under “100 nM siRNA”, the “Mean percent remaining mRNA transcript at siRNA concentration/in cell type 100 nM/HepG2” value was determined as 35%.
“AD-9696: PCSK9 siRNA (sense mCmUrGmCmCrGrGrGmCmCmCrAmCrArAmCrGmCmUdT*dT; antisense rArGrCrGrUrUrGrUrGrGrGrCrCrCrGrGmCrArGdT*dT)”: the “Mean percent remaining mRNA transcript at siRNA concentration/in cell type 30 nM/HepG2” value was found to be 77%.
On the same count and under the same terms, the same measure for “AD-9701: PCSK9 siRNA (sense mCmCrGmCmUrGmCmCrGrGmCrArAmCmUmUmCmCrGdT*dT; antisense rCrGrGrArArGrUrUrGrCrCrGrGmCrArGrCrGrGdT*dT)”: 100%; for “AD-9720: PCSK9 siRNA (sense rGmCmUrGmCmCrGrGmCrArAmCmUmUmCmCrGrGrGdT*dT; antisense rCrCrCrGrGrArArGrUrUrGrCrCrGrGmCrArGrCdT*dT)”: 92%.
The same measure, in the same setting: under “AD-9558: PCSK9 siRNA (sense rUrArUrCrUrUrUrUrGrGrGrUrCrUrGrUrCrCrUdT*dT; antisense rArGrGrArCrArGrArCrCrCrArArArArGrArUrAdT*dT)” stands 66%; under “AD-9606: PCSK9 siRNA (sense rUrCrGrUrGrCrUrGrGrUrCrArCrCrGrCrUrGrCdT*dT; antisense rGrCrArGrCrGrGrUrGrArCrCrArGrCrArCrGrAdT*dT)”, 107%.
With “AD-9629: PCSK9 siRNA (sense rUrCrUrGrGrGrUrUrUrUrGrUrArGrCrArUrUrUdT*dT; antisense rArArArUrGrCrUrArCrArArArArCrCrCrArGrAdT*dT)”, the “Mean percent remaining mRNA transcript at siRNA concentration/in cell type 3 nM/HepG2” value is recorded as 24% and the “Mean percent remaining mRNA transcript at siRNA concentration/in cell type 30 nM/HepG2” value came to 23%.
On to “AD-9642: PCSK9 siRNA (sense mUrGmUrAmUmCmUmCmCmUrArGrAmCrAmCmCrArGdT*dT; antisense rCrUrGrGrUrGrUrCmUrArGrGrArGrAmUrAmCrAdT*dT)”, for which the “Mean percent remaining mRNA transcript at siRNA concentration/in cell type 30 nM/HepG2” value is 105%.
Still for that read-out and setting: under “AD-9702: PCSK9 siRNA (sense rGmCrArGrArGrAmCmUrGrAmUmCmCrAmCmUmUmCdT*dT; antisense rGrArArGrUrGrGrArUmCrArGrUrCrUrCrUrGrCdT*dT)” stands 79%; under “AD-9552: PCSK9 siRNA (sense rArGrGrArGrCrArUrGrGrArArUrCrCrCrGrGrCdT*dT; antisense rGrCrCrGrGrGrArUrUrCrCrArUrGrCrUrCrCrUdT*dT)”, 80%; under “AD-9728: PCSK9 siRNA (sense mCrArGmCrGrGmCmCrGrGrGrAmUrGmCmCrGrGmCdT*dT; antisense rGrCrCrGrGmCrArUrCrCrCrGrGrCrCrGrCrUrGdT*dT)”, 94%.
With “AD-9756: PCSK9 siRNA (sense rGrGrGmCrArGrGrGmUmCrAmUrGrGmUmCrAmCmCdT*dT; antisense rGrGrUrGrArCmCrArUrGrArCrCrCrUrGrCrCrCdT*dT)”, the “Mean percent remaining mRNA transcript at siRNA concentration/in cell type 30 nM/HepG2” value is recorded as 63%.
On to “AD-9724: PCSK9 siRNA (sense mCmCmUrGrGmUrGrGrArGrGmUrGmUrAmUmCmUmCdT*dT; antisense rGrArGrAmUrAmCrArCrCrUrCmCrArCmCrArGrGdT*dT)”, for which the “Mean percent remaining mRNA transcript at siRNA concentration/in cell type 30 nM/HepG2” value is 127%.
As for “AD-9740: PCSK9 siRNA (sense rGrGmCrArAmCmUmUmCmCrGrGrGrAmCrGrAmUrGdT*dT; antisense mCrArUrCrGrUrCrCrCrGrGrArArGrUrUrGrCrCdT*dT)”, the “Mean percent remaining mRNA transcript at siRNA concentration/in cell type 30 nM/HepG2” value was determined as 198%.
In general, IC50 refers to the concentration that gives 50% inhibition. Low values mean greater potency in that assay, high ones weaker potency in that assay. On to “AD-9607: PCSK9 siRNA (sense rGrGrArGrCrUrGrGrUrGrCrUrArGrCrCrUrUrGdT*dT; antisense rCrArArGrGrCrUrArGrCrArCrCrArGrCrUrCrCdT*dT)”, for which the IC50 was 0.2 nM, the “Mean percent remaining mRNA transcript at siRNA concentration/in cell type 3 nM/HepG2” value is 28% and the “Mean percent remaining mRNA transcript at siRNA concentration/in cell type 30 nM/HepG2” value amounted to 32%.
In the case of “AD-9643: PCSK9 siRNA (sense GGAGGuGuAucuccuAGAcTsT; antisense GUCuAGGAGAuAcACCUCCTsT; as printed in the source, key not given here)”, the “Mean percent remaining mRNA transcript at siRNA concentration/in cell type 30 nM/HepG2” value was 40%.
As for “AD-9630: PCSK9 siRNA (sense rGrGrGrCrArGrGrGrUrCrArUrGrGrUrCrArCrCdT*dT; antisense rGrGrUrGrArCrCrArUrGrArCrCrCrUrGrCrCrCdT*dT)”, the “Mean percent remaining mRNA transcript at siRNA concentration/in cell type 30 nM/HepG2” value amounted to 82%.
“AD-9731: PCSK9 siRNA (sense mUrGrGmUrGrArArGrAmUrGrArGmUrGrGmCrGrAdT*dT; antisense rUrCrGrCmCrArCrUmCrArUrCrUrUmCrArCmCrAdT*dT)”: 0.32 nM corresponded to half-maximal inhibition (IC50), the “Mean percent remaining mRNA transcript at siRNA concentration/in cell type 3 nM/HepG2” value was found to be 31% and the “Mean percent remaining mRNA transcript at siRNA concentration/in cell type 30 nM/HepG2” value worked out at 31%.
For the substance “AD-9709: PCSK9 siRNA (sense mCmCmCrAmUrGmUmCrGrAmCmUrAmCrAmUmCrGrAdT*dT; antisense rUrCrGrArUrGmUrArGrUrCrGrAmCrArUrGrGrGdT*dT)”, the “Mean percent remaining mRNA transcript at siRNA concentration/in cell type 30 nM/HepG2” value was 104%.
Turning to “AD-9661: PCSK9 siRNA (sense rGrArGmUrGrAmCmCrAmCmCrGrGrGrArArAmUmCdT*dT; antisense rGrArUrUrUrCrCrCrGrGrUrGrGrUmCrArCrUrCdT*dT)”, the “Mean percent remaining mRNA transcript at siRNA concentration/in cell type 30 nM/HepG2” value is 83%.
Regarding “AD-9722: PCSK9 siRNA (sense rGrArArGrAmUrGrArGmUrGrGmCrGrAmCmCmUrGdT*dT; antisense mCrArGrGrUrCrGrCmCrArCrUmCrArUrCrUrUrCdT*dT)”, the “Mean percent remaining mRNA transcript at siRNA concentration/in cell type 30 nM/HepG2” value came to 76%.
Regarding “AD-9560: PCSK9 siRNA (sense rGrArGrUrUrUrArUrUrCrGrGrArArArArGrCrCdT*dT; antisense rGrGrCrUrUrUrUrCrCrGrArArUrArArArCrUrCdT*dT)”, the “Mean percent remaining mRNA transcript at siRNA concentration/in cell type 30 nM/HepG2” value is given as 97%.
